Patent publication US12201593B2, “Oral pharmaceutical formulations of bitter compounds for asthma” (Aardvark Therapeutics Inc., priority 2018, dated 2025)

Columns and labels:
[1] = system: primary human smooth muscle (HASM) cells; experiment: FLECS bronchodilator assay: single-cell contractility of HASM cells after bradykinin/carbachol-induced contraction; format: cell-based; conditions: for relaxation of stimulated cells: HASM from asthmatic and non-asthmatic humans, stimulated to contract with bradykinin; for effect on contraction relative to control (FIG. 2): test agent 100 μM alone, stimulating agents BK and carbachol (10 μM), negative control 0.1% DMSO
Description: FIGS. 1A, 1B, and 1C show the bronchodilator assay workflow with a […] of FLECS. Each well holds ˜1,200 micro-patterns for sensing force-generation by single cells. […] The two cases represent the positive and negative controls for the assay.
An in vitro model using human airway smooth muscle cells (HASM) from both asthmatic patients and “normal” non-asthmatic humans was stimulated to contract with bradykinin.
The assay investigated bronchodilatation properties of bitter taste agonists, individually and in combination, administered to primary human smooth muscle (HASM) cells after inducing contraction with asthmatic agent bradykinin. HASM cells were obtained from asthmatic patients and “normal” or non-asthmatic patients. Each of 4 primary HASM cell lines (2 from healthy donors; 2 from asthmatic donors) were seeded on FLECSplates and were stimulated to contract via exposure to bradykinin (BK) or carbachol. […] Accordingly, at 15 minutes following exposure to BK, the cells were treated with a denatonium salt or 3-CQL for Example 1, or combinations thereof, as well as positive controls and negative controls. The cells were imaged at 5 minute intervals beginning with a baseline reading, out to 45 minutes. The measurement was attenuation of population wide BK-induced contractility by treatment of a test compound (or combination) relative to controls.
Each well holds ˜1,200 micro-patterns for sensing force-generation by single cells. […] The two cases represent the positive and negative controls for the assay.

[2] = system: TAS2R subtypes; conditions: cited from earlier work

| Structure (SMILES) | relaxation of stimulated cells [1] | effect on contraction relative to control (FIG. 2) [1] | number of TAS2R subtypes activated [2] | potency of formoterol alone (FIG. 2) ([1]; formoterol 1 μM, concentration reduced 50×) |
| --- | --- | --- | --- | --- |
| O=C(/C=C/c1ccc(O)c(O)c1)O[C@@H]1C[C@](O)(C(=O)O)C[C@@H](O)[C@H]1O [3-CQL, 3-caffeoylquinic acid] | did not relax | increase contraction relative to control |  |  |
| CC[N+](CC)(CC(=O)Nc1c(C)cccc1C)Cc1ccccc1 [DB, phenylmethyl-[2-[(2,6-dimethylphenyl)amino]-2-oxoethyl]-diethylammonium benzoate] |  | relaxing effect | 8 |  |
| CC[N+](CC)(CC(=O)Nc1c(C)cccc1C)Cc1ccccc1 [DS, denatonium saccharide] | did relax |  |  |  |
| COc1ccc(CC(C)NCC(O)c2ccc(O)c(NC=O)c2)cc1 (stereo not drawn) [formoterol, Formoterol] |  |  |  | not as potent as previous experiments |
